Structures are written as SMILES.

In one assay the target is TrkA kinase (Homo sapiens, UniProt P04629). Kind of assay: TrkA kinase assay (mobility shift assay). In kind it is biochemical. The conditions noted are these: class symbols; read-out: Trk A Kinase IC50. Put shortly: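 Ten-point compound series was preincubated 10 min at room temperature with TrkA, then FAM-peptide plus ATP added in HEPES pH 7.5/Brij-35 buffer and reacted at 28 °C before EDTA quench.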
TrkA kinase, sequence (P04629 33-796): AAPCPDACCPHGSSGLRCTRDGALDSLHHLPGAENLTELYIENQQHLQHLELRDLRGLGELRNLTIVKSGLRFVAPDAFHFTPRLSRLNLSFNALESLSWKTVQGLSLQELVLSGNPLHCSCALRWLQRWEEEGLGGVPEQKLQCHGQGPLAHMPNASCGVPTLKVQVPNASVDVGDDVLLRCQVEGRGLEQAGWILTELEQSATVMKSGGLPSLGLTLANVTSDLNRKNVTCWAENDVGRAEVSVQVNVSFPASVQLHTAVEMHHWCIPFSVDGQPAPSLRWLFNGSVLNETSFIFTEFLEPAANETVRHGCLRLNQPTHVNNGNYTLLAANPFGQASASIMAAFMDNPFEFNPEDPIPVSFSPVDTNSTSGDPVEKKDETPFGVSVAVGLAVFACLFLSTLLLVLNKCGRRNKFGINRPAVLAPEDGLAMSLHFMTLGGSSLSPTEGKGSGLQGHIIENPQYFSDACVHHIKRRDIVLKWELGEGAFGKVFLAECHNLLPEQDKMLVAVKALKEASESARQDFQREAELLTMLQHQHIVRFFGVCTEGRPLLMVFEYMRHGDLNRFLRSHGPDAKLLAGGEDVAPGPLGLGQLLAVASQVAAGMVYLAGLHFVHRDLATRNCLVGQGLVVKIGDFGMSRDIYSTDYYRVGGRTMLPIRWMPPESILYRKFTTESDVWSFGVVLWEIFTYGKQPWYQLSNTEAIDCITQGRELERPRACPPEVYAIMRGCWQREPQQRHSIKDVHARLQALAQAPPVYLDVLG
`Fc1ccc(F)c([C@H]2CCCN2c2ccn3ncc(-c4nc5cc(F)c(C(F)(F)F)cc5[nH]4)c3n2)c1` [Compound 139, (R)-5-(2-(2,5-difluorophenyl)pyrrolidin-1-yl)-3-(5-fluoro-6-(trifluoromethyl)-1H-benzo[d]imidazol-2-yl)pyrazolo[1,5-a]pyrimidine]: the IC50 (commonly the concentration that inhibits the measured activity by half) is above 50 nM.

`CCOc1cc2[nH]c(-c3cnn4ccc(N5CCC[C@@H]5c5cc(F)ccc5F)nc34)nc2cc1C#N` [Compound 140, (R)-2-(5-(2-(2,5-difluorophenyl)pyrrolidin-1-yl)pyrazolo[1,5-a]pyrimidin-3-yl)-6-ethoxy-1H-benzo[d]imidazole-5-carbonitrile]: the IC50 is at most 10 nM.

`CNc1cc2[nH]c(-c3cnn4ccc(N5CCC[C@@H]5c5cc(F)ccc5F)nc34)nc2cc1C#N` [Compound 142, (R)-2-(5-(2-(2,5-difluorophenyl)pyrrolidin-1-yl)pyrazolo[1,5-a]pyrimidin-3-yl)-6-(methylamino)-1H-benzo[d]imidazole-5-carbonitrile]: the IC50 is at most 10 nM.

Regarding `N#Cc1cc2nc(-c3cnn4ccc(N5CCC[C@@H]5c5cc(F)ccc5F)nc34)[nH]c2cc1N1CCOCC1` [Compound 143, (R)-2-(5-(2-(2,5-difluorophenyl)pyrrolidin-1-yl)pyrazolo[1,5-a]pyrimidin-3-yl)-6-morpholino-1H-benzo[d]imidazole-5-carbonitrile], the IC50 is at most 10 nM.

In the case of `N#Cc1cc2nc(-c3cnn4ccc(N5CCC[C@@H]5c5cc(F)ccc5F)nc34)[nH]c2cc1N1CC(O)C1` [Compound 145, (R)-2-(5-(2-(2,5-difluorophenyl)pyrrolidin-1-yl)pyrazolo[1,5-a]pyrimidin-3-yl)-6-(3-hydroxyazetidin-1-yl)-1H-benzo[d]imidazole-5-carbonitrile], the IC50 was at most 10 nM.

For the compound `O=C1NCCNc2cc3[nH]c(-c4cnn5ccc(N6CCC[C@@H]6c6cc(F)ccc6F)nc45)nc3cc21` [Compound 146, (R)-2-(5-(2-(2,5-difluorophenyl)pyrrolidin-1-yl)pyrazolo[1,5-a]pyrimidin-3-yl)-5,6,7,8-tetrahydroimidazo[4′,5′:4,5]benzo[1,2-e][1,4]diazepin-9(3H)-one], the IC50 is at most 10 nM.

As to `O=C1NCCOc2cc3[nH]c(-c4cnn5ccc(N6CCC[C@@H]6c6cc(F)ccc6F)nc45)nc3cc21` [Compound 147, (R)-2-(5-(2-(2,5-difluorophenyl)pyrrolidin-1-yl)pyrazolo[1,5-a]pyrimidin-3-yl)-7,8-dihydro-3H-imidazo[4′,5′:4,5]benzo[1,2-f][1,4]oxazepin-9(6H)-one], the IC50 is at most 10 nM.

Regarding `N#Cc1cc2nc(-c3cnn4ccc(N5CCC[C@@H]5c5cc(F)ccc5F)nc34)[nH]c2cc1O` [Compound 149, (R)-2-(5-(2-(2,5-difluorophenyl)pyrrolidin-1-yl)pyrazolo[1,5-a]pyrimidin-3-yl)-6-hydroxy-1H-benzo[d]imidazole-5-carbonitrile], the IC50 is at most 10 nM.

On to `N#Cc1cc2nc(-c3cnn4ccc(N5CCC[C@@H]5c5cc(F)ccc5F)nc34)[nH]c2cc1OCCO` [Compound 150, (R)-2-(5-(2-(2,5-difluorophenyl)pyrrolidin-1-yl)pyrazolo[1,5-a]pyrimidin-3-yl)-6-(2-hydroxyethoxy)-1H-benzo[d]imidazole-5-carbonitrile], for which the IC50 was at most 10 nM.

Consider `N#Cc1cc2nc(-c3cnn4ccc(N5CCC[C@@H]5c5cc(F)ccc5F)nc34)[nH]c2cc1Br` [Compound 151, (R)-6-bromo-2-(5-(2-(2,5-difluorophenyl)pyrrolidin-1-yl)pyrazolo[1,5-a]pyrimidin-3-yl)-1H-benzo[d]imidazole-5-carbonitrile], for which the IC50 is at most 10 nM.

`COC(=O)c1cc2[nH]c(-c3cnn4ccc(N5CCC[C@@H]5c5cc(F)ccc5F)nc34)nc2cc1C#N` [Compound 152, methyl (R)-5-cyano-2-(5-(2-(2,5-difluorophenyl)pyrrolidin-1-yl)pyrazolo[1,5-a]pyrimidin-3-yl)-1H-benzo[d]imidazole-6-carboxylate]: the IC50 is at most 10 nM.

Consider `N#Cc1cc2nc(-c3cnn4ccc(N5CCC[C@@H]5c5cc(F)ccc5F)nc34)[nH]c2cc1C(=O)O` [Compound 153, (R)-5-cyano-2-(5-(2-(2,5-difluorophenyl)pyrrolidin-1-yl)pyrazolo[1,5-a]pyrimidin-3-yl)-1H-benzo[d]imidazole-6-carboxylic acid], for which the IC50 was at most 10 nM.

With `N#Cc1cc2nc(-c3cnn4ccc(N5CCC[C@@H]5c5cc(F)ccc5F)nc34)[nH]c2cc1C(N)=O` [Compound 154, (R)-5-cyano-2-(5-(2-(2,5-difluorophenyl)pyrrolidin-1-yl)pyrazolo[1,5-a]pyrimidin-3-yl)-1H-benzo[d]imidazole-6-carboxamide], the IC50 was at most 10 nM.

For `COC(=O)c1c(F)ccc2nc(-c3cnn4ccc(N5CCC[C@@H]5c5cc(F)ccc5F)nc34)[nH]c12` [Compound 158, methyl (R)-2-(5-(2-(2,5-difluorophenyl)pyrrolidin-1-yl)pyrazolo[1,5-a]pyrimidin-3-yl)-6-fluoro-1H-benzo[d]imidazole-7-carboxylate], the IC50 is at most 10 nM.

As for `Cc1cc2[nH]c(-c3cnn4ccc(N5CCC[C@@H]5c5cc(F)ccc5F)nc34)nc2cc1C#N` [Compound 159, (R)-2-(5-(2-(2,5-difluorophenyl)pyrrolidin-1-yl)pyrazolo[1,5-a]pyrimidin-3-yl)-6-methyl-1H-benzo[d]imidazole-5-carbonitrile], the IC50 is at most 10 nM.

Consider `CN1CCN(c2cc3[nH]c(-c4cnn5ccc(N6CCC[C@@H]6c6cc(F)ccc6F)nc45)nc3cc2C#N)CC1` [Compound 163, (R)-2-(5-(2-(2,5-difluorophenyl)pyrrolidin-1-yl)pyrazolo[1,5-a]pyrimidin-3-yl)-6-(4-methylpiperazin-1-yl)-1H-benzo[d]imidazole-5-carbonitrile], for which the IC50 is at most 10 nM.

For the compound `N#Cc1cc2nc(-c3cnn4ccc(N5CCC[C@@H]5c5cc(F)ccc5F)nc34)[nH]c2cc1N1CC[C@H](O)C1` [Compound 164, 2-(5-((R)-2-(2,5-difluorophenyl)pyrrolidin-1-yl)pyrazolo[1,5-a]pyrimidin-3-yl)-6-((S)-3-hydroxypyrrolidin-1-yl)-1H-benzo[d]imidazole-5-carbonitrile], the IC50 is at most 10 nM.

Take `N#Cc1cc2nc(-c3cnn4ccc(N5CCC[C@@H]5c5cc(F)ccc5F)nc34)[nH]c2cc1N1CCC[C@H]1C#N` [Compound 165, 6-((S)-2-cyanopyrrolidin-1-yl)-2-(5-((R)-2-(2,5-difluorophenyl)pyrrolidin-1-yl)pyrazolo[1,5-a]pyrimidin-3-yl)-1H-benzo[d]imidazole-5-carbonitrile]: the IC50 was at most 10 nM.

The assay is the same for the next values; noted with them: numeric values; read-out: Trk A Kinase IC50.
Regarding `N#Cc1cc2[nH]c(-c3cnn4ccc(N5CCC[C@@H]5c5cc(F)ccc5F)nc34)nc2cc1C(F)(F)F` [Compound 157, (R)-2-(5-(2-(2,5-difluorophenyl)pyrrolidin-1-yl)pyrazolo[1,5-a]pyrimidin-3-yl)-5-(trifluoromethyl)-1H-benzo[d]imidazole-6-carbonitrile], the IC50 came to 27 nM.

With `COc1cc2[nH]c(-c3cnn4ccc(N5CCC[C@@H]5c5cc(F)ccc5F)nc34)nc2cc1C(=O)N(C)C` [Compound 161, (R)-2-(5-(2-(2,5-difluorophenyl)pyrrolidin-1-yl)pyrazolo[1,5-a]pyrimidin-3-yl)-6-methoxy-N,N-dimethyl-1H-benzo[d]imidazole-5-carboxamide], the IC50 was 0.9 nM.

The values are drawn from patent US20210395256A1, “TYROSINE KINASE INHIBITORS, COMPOSITIONS AND METHODS THERE OF” (Betta Pharmaceuticals Co., Ltd., priority 2018, published 2021).
